These results are taken from patent US20080014289A1, “Vehicle and method for treating and preventing acne vulgaris and exfoliating the skin hypohalous acids” (priority 2006, published 2008).

The test system of one series is bacteria. The settings on record: hot tubs, spas and swimming pools; cited from earlier work.
The conditions of series [1]: cited from earlier work.
For series [2] the following is noted: cited from earlier work. The source holds these as a separate data set.
In another series the test system is cells. The settings on record: equimolar basis, compared with HOCl; cited from earlier work.
For another series, the system named is acne vulgaris. Kind of series: Preclinical trial of washing solution, anti-acne activity. It is filed as in vivo. An excerpt:
The concentration of HOCl in the washing solution may be higher than this value depending on where the washing solution is to be applied, e.g. when treating a patient's back for trunk acne, the concentration of HOCl in the washing solution may be as high as 60 ppm for maximum effect in the short term because the thickness of skin on this section of a body is around 3 mm (as compared to a skin thickness of 0.1 mm at the chin section of the face).
Treatment is divided into two stages, treatment period and maintenance period. User should conduct the treatment daily during treatment period until no acne break out; then can switch to maintenance period.
• 1. Wash the face regularly with soap completely removing oil and grime from the surface of the skin. Concentrate on areas of the skin prone to suffering from acne, such as forehead, chin, jawline, around the lips and nose. • 2. Prepare the washing solution as indicated in Examples 1A-1I. • 3. Submerge your face fully into the washing solution, in order to extend time for skin contacting with the solution, moving the head as much as practical while submerged. […]

Where two headings read alike, the source gives them in different places. Some results are limits rather than exact numbers.

Take `OCl` [HOCl, hypochlorous acid]: the “time needed to completely destroy a given concentration of bacteria” value with bacteria was 30 s. Also, the “FAC existing as active HOCl” value in series [1] (pH above 7.5) was under 50%. For the same molecule, the “% of Chlorine as HOCl” value in series [1] (water pH 6.5) was 90%; in series [1] (water pH 7.0), 73%; in series [1] (water pH 7.2) it was 66%; in series [1] (water pH 7.6), 45%; in series [1] (water pH 8.0) it was 21%; in series [1] (water pH 8.5), 10%. Further, the “share of FAC in the active HOCl form” value in series [1] (water pH 7.5) is about 50%.
For the molecule `OBr` [OBr^−, hypobromite], the “% bromine as OBr−” value in series [2] (water pH 6.0) is given as 0.0%; in series [2] (water pH 6.5), 0.6%; in series [2] (water pH 7.0), 2%; in series [2] (water pH 7.5), 6.0%; in series [2] (water pH 8.0) it was 17.0%; in series [2] (water pH 8.5), 43.0%.
As to `OBr` [HOBr, hypobromous acid], in the series with cells, the “efficiency as a lytic agent, factor relative to HOCl” value is listed as 10. In addition, the “% of bromine as HOBr” value is given as 100% in series [2] (water pH 6.0); 99.4% in series [2] (water pH 6.5); 98% in series [2] (water pH 7.0); 94.0% in series [2] (water pH 7.5); 83.0% in series [2] (water pH 8.0); 57.0% in series [2] (water pH 8.5). Moreover, in the series on acne vulgaris, the “anti-acne activity compared with hypochlorous acid” value is given as “slightly less effective than hypochlorous acid”.
As to Hypochlorite ion [OCl^−], the “% chlorine as OCl−” value was 10% in series [1] (water pH 6.5); 27% in series [1] (water pH 7.0); 34% in series [1] (water pH 7.2); 55% in series [1] (water pH 7.6); 79% in series [1] (water pH 8.0); 90% in series [1] (water pH 8.5).
